Laboratory results: PubChem BioAssay (NCI)
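Cells were grown in 96-well plates and exposed to each compound for 48 hours at five concentrations; endpoints were interpolated linearly between bracketing concentrations, or set to the highest concentration if not reached. GI50 is the concentration that inhibits growth by half. TGI is the concentration that stops growth completely.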

Assays:
Assay in all cases: inhibition of tumour cell growth, NCI panel, 48 h
[1] = tested on: NCI/ADR-RES ovarian
[2] = tested on: MDA-MB-435
[3] = tested on: HCC-2998 colon
[4] = tested on: ACHN renal
[5] = tested on: CAKI-1 renal
[6] = tested on: COLO 205 colon
[7] = tested on: DU-145 prostate
[8] = tested on: RPMI-8226 leukemia
[9] = tested on: CCRF-CEM leukemia
[10] = tested on: UACC-257 melanoma
[11] = tested on: T-47D breast
[12] = tested on: HL-60(TB) leukemia
[13] = tested on: NCI-H23 lung
[14] = tested on: BT-549 breast
[15] = tested on: UO-31 renal
[16] = tested on: SF-539 CNS
[17] = tested on: SK-OV-3 ovarian
[18] = tested on: SNB-75 CNS
[19] = tested on: HS 578T breast
[20] = tested on: MALME-3M melanoma
[21] = tested on: SF-295 CNS
[22] = tested on: K-562 leukemia
[23] = tested on: OVCAR-4 ovarian
[24] = tested on: NCI-H226 lung
[25] = tested on: 786-0 renal
[26] = tested on: SK-MEL-5 melanoma
[27] = tested on: OVCAR-3 ovarian
[28] = tested on: HCT-15 colon
[29] = tested on: UACC-62 melanoma
[30] = tested on: OVCAR-5 ovarian
[31] = tested on: A549 NSCLC
[32] = tested on: KM12 colon
[33] = tested on: SK-MEL-28 melanoma
[34] = tested on: MDA-MB-231 breast
[35] = tested on: HT29 colon
[36] = tested on: NCI-H460 lung
[37] = tested on: TK-10 renal
[38] = tested on: HCT-116 colon
[39] = tested on: LOX IMVI melanoma
[40] = tested on: PC-3 prostate
[41] = tested on: SR leukemia
[42] = tested on: EKVX NSCLC
[43] = tested on: SW-620 colon
[44] = tested on: SN12C renal
[45] = tested on: M14 melanoma
[46] = tested on: MOLT-4 leukemia
[47] = tested on: A498 renal
[48] = tested on: SF-268 CNS

Structure (SMILES): COc1cc2nc(Cl)nc(Nc3cccc(C4=Nc5c(N)nc(N)nc5NC(c5ccc(F)cc5)C4)c3)c2cc1OC (stereo unspecified)
- GI50 [1]: 6.07 µM
- TGI [1]: > 100 µM
- GI50 [2]: 1660 nM
- TGI [2]: 3.11 µM
- GI50 [3]: 1920 nM
- TGI [3]: 3.48 µM
- GI50 [4]: 1740 nM
- TGI [4]: 3.22 µM
- GI50 [5]: 1610 nM
- TGI [5]: 3.27 µM
- GI50 [6]: 1770 nM
- TGI [6]: 3.51 µM
- GI50 [7]: 1770 nM
- TGI [7]: 3.44 µM
- GI50 [8]: 1770 nM
- TGI [8]: 4.42 µM
- GI50 [9]: 1050 nM
- TGI [9]: 4.14 µM
- GI50 [10]: 1960 nM
- TGI [10]: 3.94 µM
- GI50 [11]: 1930 nM
- TGI [11]: 4.64 µM
- GI50 [12]: 1950 nM
- TGI [12]: 4.09 µM
- GI50 [13]: 2000 nM
- TGI [13]: 4.73 µM
- GI50 [14]: 2290 nM
- TGI [14]: 4.36 µM
- GI50 [15]: 1550 nM
- TGI [15]: 3.54 µM
- GI50 [16]: 1530 nM
- TGI [16]: 2930 nM
- GI50 [17]: 25.7 µM
- TGI [17]: 59.3 µM
- GI50 [18]: 1130 nM
- TGI [18]: 2420 nM
- GI50 [19]: 1980 nM
- TGI [19]: 4.53 µM
- GI50 [20]: 2010 nM
- TGI [20]: 3.76 µM
- GI50 [21]: 1820 nM
- TGI [21]: 3.5 µM
- GI50 [22]: 1960 nM
- TGI [22]: 4.68 µM
- GI50 [23]: 1630 nM
- TGI [23]: 3.38 µM
- GI50 [24]: 3.22 µM
- TGI [24]: 16.6 µM
- GI50 [25]: 1560 nM
- TGI [25]: 2990 nM
- GI50 [26]: 1650 nM
- TGI [26]: 3.02 µM
- GI50 [27]: 1850 nM
- TGI [27]: 3.55 µM
- GI50 [28]: 1960 nM
- TGI [28]: 4.27 µM
- GI50 [29]: 1760 nM
- TGI [29]: 3.31 µM
- GI50 [30]: 1790 nM
- TGI [30]: 3.55 µM
- GI50 [31]: 2640 nM
- TGI [31]: 7.82 µM
- GI50 [32]: 1880 nM
- TGI [32]: 3.61 µM
- GI50 [33]: 1620 nM
- TGI [33]: 3.04 µM
- GI50 [34]: 1490 nM
- TGI [34]: 3.03 µM
- GI50 [35]: 2050 nM
- TGI [35]: 4.38 µM
- GI50 [36]: 1910 nM
- TGI [36]: 3.82 µM
- GI50 [37]: 1950 nM
- TGI [37]: 3.86 µM
- GI50 [38]: 1760 nM
- TGI [38]: 3.34 µM
- GI50 [39]: 1780 nM
- TGI [39]: 3.51 µM
- GI50 [40]: 2170 nM
- TGI [40]: 6.68 µM
- GI50 [41]: 1960 nM
- TGI [41]: 4.8 µM
- GI50 [42]: 1500 nM
- TGI [42]: 3.99 µM
- GI50 [43]: 1760 nM
- TGI [43]: 3.6 µM
- GI50 [44]: 1720 nM
- TGI [44]: 3.48 µM
- GI50 [45]: 1860 nM
- TGI [45]: 3.7 µM
- GI50 [46]: 1770 nM
- TGI [46]: 5.45 µM
- GI50 [47]: 1010 nM
- TGI [47]: 2470 nM
- GI50 [48]: 1680 nM
- TGI [48]: 3.68 µM
